In US20230303672A1, “METASTATIC CANCER TREATMENT OR PREVENTION” (OXFORD BROOKES UNIVERSITY, priority 2020, published 2023):

Columns and labels:
[1] = test system: MCF7 (metastatic) cells adhering to endothelial cells; assay: Endothelial static adhesion assay with or without antibodies and peptides; assay type: cell-based; details: peptide and corresponding peptide conjugate; compared to BT474 (non-metastatic) cells; 12 replicates; FIG. 15
Experimental: MCF7 and HUVEC cells were grown in 24 well cell culture plates to 70% confluency the cells were treated with Dharmafect™ transfection reagent and 5 uM of plectin siRNAs or scrambled negative control for 24 hrs. Some HUVEC and MCF7 cells were non-treated. HUVEC cells were activated by treating with 10 ug/ml TNFa in complete medium for 2 hrs at 37° C., 5% CO2. MCF7 breast cancer cells were grown in T75 flasks until 70% confluency and treated with 10 mg/ml HTPS in complete medium for 2 hrs at 37° C., 5% CO2. HTPS was removed and cells were washed with 10 ml of PBS 5 times until the wash ran clear. Cells were scraped and counted. 20,000 cells/ml was prepared. MCF7 cells were treated with either 500 ul of EVs isolated using the extraction method outlined above, or 500 ul of PBS for 10 mins at RT. EVs or PBS was removed and 1 ml of MCF7 cells were added to HUVEC cells and incubated at 37° C., 5% CO2 for 10 mins, before cells were removed and wells gently washed with warmed PBS to remove any unbound cells. Wells were then fixed with 4% PFA for 10 mins at RT. Fixative was removed and the wells washed 3 times with PBS and then coverslips were mounted using fluoromount. Total adhered cells per coverslip were counted.
This was as above but using 1/1000 of stock antibodies and peptides stated below.

[2] = test system: HPA-positive BC cells binding to endothelial cells; details: incubating cells with HPA or BSA-GalNAc; 'It has been shown'; cited from earlier work
[3] = test system: MCF7 breast cancer cell adhesion to endothelial cells (HUVEC); assay: Endothelial static adhesion assay with recombinant plectin; assay type: cell-based; details: MCF7 treated with 0.1 ug/ml recombinant plectin for 10 mins, compared to untreated, FIG. 6
Experimental: Coverslips with activated endothelial cells were prepared as above. MCF7 breast cancer cells were grown in T75 flasks until 70% confluency and treated with 10 mg/ml HTPS in complete medium for 2 hrs at 37° C., 5% CO2. HTPS was removed and cells were washed with 10 ml of PBS 5 times until the wash ran clear. Cells were scraped and counted. 20,000 cells/ml was prepared. MCF7 cells were treated with either 0.1 ug/ml recombinant plectin, (2b Scientific SKU RPC754Hu01 (residues Asp 175-Pro 400 (SEQ ID NO: 1) of human plectin Uniprot ID Q15149, corresponding to the actin-binding domain), in PBS or PBS for 10 mins at RT. Recombinant plectin or PBS were removed from cells and 20,000 cells/ml of MCF7 cells were added per well and incubated for 10 mins, cells were removed and wells gently washed with warmed PBS to remove any unbound cells. Wells were then fixed with 4% PFA for 10 mins at RT. Fixative was removed and the wells washed 3 times with PBS and then coverslips were mounted using fluoromount. Total adhered cells per coverslip were counted.
Sterilised 13 mm D glass coverslips were placed in wells of 24 well plate and 100,000 HUVEC cells were seeded. Cells were incubated at 37° C. with 5% CO2 atmosphere until cells became a monolayer. HUVEC cells were activated by treating with 10 ug/ml TNFa in complete medium for 2 hrs at 37° C., 5% CO2.

## AVIYGGVQ [SEQ7]
[1]
  MCF7 (metastatic) cells binding to endothelial cells (peptide): specifically reduces MCF7 (metastatic) cells binding to endothelial cells in a concentration dependant manner

## BSA-GalNAc: GalNAc sugar conjugated to BSA
[2]
  BC cell binding to endothelial cells: inhibits cells binding

B1: recombinant plectin: 2b Scientific RPC754Hu01, residues Asp 175-Pro 400 (SEQ ID NO: 1) of human plectin, the actin-binding domain (protein, listed as Homo sapiens)
chain: DERDRVQKKTFTKWVNKHLIKAQRHISDLYEDLRDGHNLISLLEVLSGDSLPREKGRMRFHKLQNVQIALDYLRHRQVKLVNIRNDDIADGNPKLTLGLIWTIILHFQISDIQVSGQSEDMTAKEKLLLWSQRMVEGYQGLRCDNFTSSWRDGRLFNAIIHRHKPLLIDMNKVYRQTNLENLDQAFSVAERDLGVTRLLDPEDVDVPQPDEKSIITYVSSLYDAMP
[3]
  Cell adhesion of MCF7 to endothelial cells: significantly decreases
[3]; listed as recombinant plectin fragment
  Cell adhesion of MCF7 to endothelial cells: significantly reduced
